According to patent publication US20240350497A1, “COMBINATION THERAPY FOR THE TREATMENT OF PAN-KRAS MUTATED CANCERS” (Tiziana Life Sciences PLC, priority 2021, published 2024):
Where two headings read alike, the source gives them in different places.

How the values were obtained:
[1] = tested on: cell lines harboring KRAS mutations; test: sensitivity of KRAS mutant cell lines to CDK inhibitor in vitro; assay type: cell-based
Description: (§1) FIG. 7A and FIG. 7B are plots showing dose-response curves of colorectal non-isogenic cells containing either wild type (WT) or mutated KRAS in response to CDK inhibitors AT7519 (FIG. 7A) or dinaciclib (FIG. 7B). The cyclin-dependent kinase, CDK1, is a synthetic lethal target for KRAS mutant tumors. KRAS mutant cells show increased activity of CDK1 (FIGS. 6A-6D). The inhibition of CDK1 causes a reduction in the S-phase of the cell cycle progression decreasing cell proliferation in KRAS mutant cells. This decreased cell cycle activity is observed by the modulation of Rb, a master control of the G1/S checkpoint. Through a series of experiments, including using parallel siRNA screens in KRAS mutant and wild type colorectal isogenic tumor cells and subsequently validated in a genetically diverse panel of 26 colorectal and pancreatic tumor cell models, the KRAS/CDK1 interaction has a synthetic lethal effect on cancer cells.

[2] = tested on: KRAS mutant tumor xenografts; test: KRAS mutant tumor xenografts treated with CDK inhibitor in vivo; set-up: species or system mice
Description: FIG. 8A is a plot showing the change in tumor volume of KRAS mutant tumor xenografts in mice treated with vehicle control (DMSO) or the CDK inhibitor AZD5438.
FIG. 8B is a plot showing the percent survival of mice harboring KRAS mutant tumor xenografts following treatment with either vehicle control (DMSO) or the CDK inhibitor AZD5438. FIG. 8C is a chart showing the tumor weight in mice harboring KRAS mutant tumor xenografts following treatment with either vehicle control (DMSO) or the CDK inhibitor AZD5438. FIG. 8D is a series of images showing tumor shrinkage in mice harboring KRAS mutant tumor xenografts following treatment with the CDK inhibitor AZD5438.
as §1, with “The” for “FIG. 7A and FIG. 7B are plots showing dose-response curves of colorectal non-isogenic cells containing either wild type (WT) or mutated KRAS in response to CDK inhibitors AT7519 (FIG. 7A) or dinaciclib (FIG. 7B). The”

[3] = tested on: HCT-116 human colon carcinoma; test: milciclib in combination with 5-FU, HCT-116 human colon carcinoma xenograft; conditions: for animal deaths: single agents at the tested doses
Experimental: (§2) The efficacy of milciclib was tested in several human xenografts implanted in the hind flank region of athymic mice (FIG. 18). Models in nude mice included A2780 ovarian cancer, DU-145 prostatic cancer, BX-PC3 pancreatic cancer, A549 non-small cell lung cancer, MDA-MB-231 breast cancer, MIA-PACA-2 pancreatic cancer, A375 melanoma, CAPAN-1 pancreatic cancer, and HCT-116 colon cancer. The MIA-PACA-2 and CAPAN-1 pancreatic cancer cell lines both express KRAS mutants. The MIA-PACA-2 and CAPAN-1 cell lines tested with milciclib harbor the KRAS mutants, G12C and G12V, respectively. […] The HCT-116 colon cancer cell line expresses the G13D KRAS mutant, making up of 15.5% of CRC KRAS mutants Following implantation, tumors were allowed to establish to a size of 100 mm3 prior to oral administration of milciclib. In all these experiments, a daily bid treatment was administered for a maximum of 10 days.
Activity of milciclib has been tested in combination with 5-FU on HCT-116 human colon carcinoma cells (FIG. 10A). The HCT-116 cell line expresses the KRAS G13D mutant.

[4] = tested on: BX-PC3 human pancreatic carcinoma; test: milciclib in combination with gemcitabine, BX-PC3 human pancreatic carcinoma, first experiment; conditions: for animal deaths: single agents at the tested doses
Experimental: A combination therapy of milciclib and the DNA damaging agent, gemcitabine, was treated on BX-PC3 human pancreatic carcinoma (FIG. 12A).

[5] = tested on: BX-PC3 human pancreatic carcinoma; test: milciclib in combination with gemcitabine, BX-PC3 human pancreatic carcinoma, second experiment; conditions: for animal deaths: single agents at the tested doses
Experimental: A second experiment was conducted of milciclib in combination with gemcitabine on BX-PC3 human pancreatic carcinoma (FIG. 12B and FIG. 12C).

NSCLC = conditions: single agent, Phase II studies; cited from earlier work
[6] = tested on: HCT-116 human colon carcinoma; test: milciclib in combination with irinotecan, HCT-116 human colon carcinoma xenograft model; conditions: for animal deaths: single agents at the tested doses
Experimental: as §2
Topoisomerase enzymes control the manipulation of the structure of DNA necessary for replication.

[7] = tested on: A2780 human ovarian carcinoma; test: A2780 human ovarian carcinoma xenografts, oral milciclib; assay type: in vivo, mice
Experimental: Pathogenic KRAS mutations were present in 606 patients of 7,325 epithelial ovarian cancers from the Caris Database, about 8.3% of the total. The frequency of KRAS mutation by subtype occurred in the following: 36.4% G12D, 35.8% G12V, and 8.4% G12C. A dose-dependent inhibition of tumor growth was measured in mice harboring A2780 human ovarian carcinoma xenografts administered with daily oral administration of milciclib.

[8] = tested on: MIA-PACA-2 pancreatic cancer (KRAS G12C); test: human xenograft efficacy, MIA-PACA-2; assay type: in vivo, athymic mice; conditions: oral, daily bid treatment for a maximum of 10 days
[9] = tested on: CAPAN-1 pancreatic cancer (KRAS G12V); test: human xenograft efficacy, CAPAN-1; assay type: in vivo, athymic mice; conditions: oral, daily bid treatment for a maximum of 10 days
[10] = tested on: KRAS G12D LA2 pulmonary cancerous lesions; test: transgenic mouse model KRAS G12D LA2, MRI; conditions: in vivo
Experimental: Milciclib was tested in a transgenic mouse model KRAS G12D LA2 that develops pulmonary cancerous lesions reminiscent of human lung adenocarcinomas. Milciclib was tested to follow longitudinal disease progression and evaluate therapeutic efficacy by using magnetic resonance imaging (MRI) and positron emission tomography (PET). […] The MRI methodology used in this study allow longitudinal monitoring of tumor development and response in a single animal, and furthermore, allows for more clinically relevant study design and increases its statistical relevance.

[11] = tested on: MDA-MB-231 human breast cancer
Experimental: FIG. 15A is a series of plots showing change in tumor volume in mice bearing MDA-MB-231 human breast cancer tumor xenografts following treatment with 40 mg/kg milciclib (PHA-848125) (n=8) or vehicle control (5% glucose solution) (n=8) via oral gavage twice daily on a 5-days-on/2-days-off schedule for four weeks. FIG. 15B is a series of images and a chart showing immunohistochemistry staining of Ki67 and mitotic nucleus counts, and corresponding quantification in tumor tissue collected 48 hours after the last treatment with milciclib (PHA-848125) or vehicle control for 3 weeks.

MDA-MB-231 cells = MDA-MB-231 cells exposed to milciclib and DNA damaging agent, alone or in combination; assay type: cell-based, human; conditions: TNBC cells
Experimental: The use of milciclib in combination with five chemotherapeutic drugs already in use was tested for the treatment of TNBC including paclitaxel, doxorubicin, 5-FU, cisplatin, and cyclophosphamide. Potential synergistic effects with milciclib by exposing MDA-MB-231 cells to serial dilutions of milciclib and each DNA damaging agent, alone or in combination, in clinically relevant concentrations (FIG. 16A). […] Tumor proliferation was reduced by nearly 5 times for the combination treatment of milciclib and cisplatin compared to the vehicle treated group, assessed by Ki67 staining.

[12] = tested on: N-592 human small cell carcinoma; conditions: for animal deaths: single agents at the tested doses
Experimental: Milciclib was tested orally at the doses of 20 and 30 mg/kg twice a day for 17 consecutive days.

[13] = tested on: advanced solid malignancies; conditions: oral, phase I; cited from earlier work
[14] = milciclib 20 mg/kg orally twice a day for 9 consecutive days
[15] = milciclib 40 mg/kg orally twice a day for 9 consecutive days

Compound: O=C(NC1CCNCC1)c1[nH]ncc1NC(=O)c1c(Cl)cccc1Cl [AT519]
- sensitivity of KRAS mutant versus wild type cells [1]: increased sensitivity

Compound: Cc1ncc(-c2ccnc(Nc3ccc(S(C)(=O)=O)cc3)n2)n1C(C)C [AZD5438]
- sensitivity of KRAS mutant tumors [2]: increased sensitivity

Compound: O=c1[nH]cc(F)c(=O)[nH]1 [Compound 5-FU, 5-fluorouracil, reference compound]
- TGI ([3]; 5-FU 50 mg/kg IV q7dx2): 33%
- animal deaths [3]: No animal died

Compound: Nc1ccn([C@@H]2O[C@H](CO)[C@@H](O)C2(F)F)c(=O)n1 [gemcitabine, reference compound]
- TGI ([4]; gemcitabine 80 mg/kg IV): 61%
- animal deaths [4]: No animal died
- TGI ([5]; gemcitabine 80 mg/kg IV q4dx3): 70%
- TGI ([5]; gemcitabine 80 mg/kg IV q7dx3): 62%
- animal deaths [5]: No animal died
- median survival (NSCLC): 9 months
- objective response rate (NSCLC): 20-25%

Compound: CCc1c2c(nc3ccc(OC(=O)N4CCC(N5CCCCC5)CC4)cc13)-c1cc3c(c(=O)n1C2)COC(=O)[C@]3(O)CC [irinotecan, reference compound]
- TGI ([6]; irinotecan 45 mg/kg IV q4dx3): 84%
- animal deaths [6]: No animal died

Compound: CNC(=O)c1nn(C)c2c1C(C)(C)Cc1cnc(Nc3ccc(N4CCN(C)CC4)cc3)nc1-2 [milciclib, N,1,4,4-tetramethyl-8-((4-(4-methylpiperazin-1-yl)phenyl)amino)-4,5-dihydro-1H-pyrazolo[4,3-h]quinazoline-3-carboxamide]
- TGI ([3]; milciclib 20 mg/kg orally twice a day for 12 days): 42%
- TGI ([3]; milciclib 30 mg/kg orally twice a day for 12 days): 64%
- animal deaths [3]: No animal died
- TGI ([6]; milciclib 20 mg/Kg orally twice a day for 9 days): 38%
- TGI ([6]; milciclib 30 mg/Kg orally twice a day for 9 days): 60%
- animal deaths [6]: No animal died
- TGI [4, 14]: 61%
- TGI [4, 15]: 79%
- animal deaths [4]: No animal died
- TGI [5, 14]: 74%
- TGI ([5]; milciclib 20 mg/kg twice a day for 15 days): 80%
- TGI [5, 15]: 88%
- animal deaths [5]: No animal died
- tumor growth inhibition (TGI) ([7]; 20 mg/kg bid): 53%
- tumor growth inhibition (TGI) ([7]; 30 mg/kg bid): 76%
- tumor growth inhibition (TGI) ([7]; 40 mg/kg bid): 91%
- maximal inhibition [8]: 70%
- maximal inhibition [9]: 65%
- tumor growth inhibition at the end of treatment, measured by MRI [10]: significant tumor growth inhibition
- tumor growth ([11]; 40 mg/kg oral gavage twice daily, 5-days-on/2-days-off): arrests tumor growth
- tolerability ([11]; mouse, in vivo): well tolerated
- interaction with cisplatin, cisplatin-induced apoptosis (MDA-MB-231 cells): acts synergistically
- TGI ([12]; milciclib 20 mg/kg orally twice a day for 17 consecutive days): 34%
- TGI ([12]; milciclib 30 mg/kg orally twice a day for 17 consecutive days): 56%
- animal deaths [12]: No animal died
- RP2D [13]: 150 mg/day
- tolerability [13]: well-tolerated

Compound: CC[C@@]1(O)C(=O)OCc2c1cc1n(c2=O)Cc2cc3c(CN(C)C)c(O)ccc3nc2-1 [topotecan, reference compound]
- animal deaths [12]: No animal died
- TGI ([12]; topotecan 6 mg/kg IV q4dx5): 71%
